Reference: PubChem BioAssay AID1845196 (Molecular Pharmacology Branch, DTP, NCI, 2023)
pIC50: −log10 of the molar value.

Test system: 292921-168-R tumor spheroid viability
Test: Anticancer human tumor 292921-168-R patient-derived pancreatic carcinoma cell line growth inhibition
Conditions: spheroids with HUVEC and MSC; for pIC50: curve of first compound; for viability, T/C: stronger effect = lower value
Method in brief: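 Single agents and combinations were tested on spheroids built from tumor cells plus HUVEC and hMSC, at half-log dilutions starting at or near clinical Cmax, else 10 microM; final DMSO 0.25% (v/v).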

[1] = second compound 1 µM, first compound 0.0316 µM
[2] = second compound 1 µM, first compound 0.1 µM
[3] = second compound 1 µM, first compound 0.316 µM
[4] = second compound 1 µM, first compound 1 µM
[5] = second compound 1 µM, first compound 3.16 µM
[6] = second compound 1 µM, first compound 10 µM
[7] = second compound 3.16 µM, first compound 0.0316 µM
[8] = second compound 3.16 µM, first compound 0.1 µM
[9] = second compound 3.16 µM, first compound 0.316 µM
[10] = second compound 3.16 µM, first compound 1 µM
[11] = second compound 3.16 µM, first compound 3.16 µM
[12] = second compound 3.16 µM, first compound 10 µM
[13] = second compound 10 µM, first compound 0.0316 µM
[14] = second compound 10 µM, first compound 0.1 µM
[15] = second compound 10 µM, first compound 0.316 µM
[16] = second compound 10 µM, first compound 1 µM
[17] = second compound 10 µM, first compound 3.16 µM
[18] = second compound 10 µM, first compound 10 µM
[19] = second compound 31.6 µM, first compound 0.0316 µM
[20] = second compound 31.6 µM, first compound 0.1 µM
[21] = second compound 31.6 µM, first compound 0.316 µM
[22] = second compound 31.6 µM, first compound 1 µM
[23] = second compound 31.6 µM, first compound 3.16 µM
[24] = second compound 31.6 µM, first compound 10 µM
[25] = second compound 100 µM, first compound 0.0316 µM
[26] = second compound 100 µM, first compound 0.1 µM
[27] = second compound 100 µM, first compound 0.316 µM
[28] = second compound 100 µM, first compound 1 µM
[29] = second compound 100 µM, first compound 3.16 µM
[30] = second compound 100 µM, first compound 10 µM
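Further: spheroids exposed to compounds for 7 days.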

| SMILES | pIC50 (second compound 1 µM) | pIC50 (second compound 3.16 µM) | pIC50 (second compound 10 µM) | pIC50 (second compound 31.6 µM) | pIC50 (second compound 100 µM) | viability, T/C [1] | viability, T/C [2] | viability, T/C [3] | viability, T/C [4] | viability, T/C [5] | viability, T/C [6] | viability, T/C [7] | viability, T/C [8] | viability, T/C [9] | viability, T/C [10] | viability, T/C [11] | viability, T/C [12] | viability, T/C [13] | viability, T/C [14] | viability, T/C [15] | further results |
| --- | --- | --- | --- | --- | --- | --- | --- | --- | --- | --- | --- | --- | --- | --- | --- | --- | --- | --- | --- | --- | --- |
| COc1cc(C)[nH]c(=O)c1CN1CCc2c(Cl)cc(C(OC)C3COC3)c(Cl)c2C1=O (stereo not given) + Cn1nnc2c(C(N)=O)ncn2c1=O | < 5.00 | < 5.00 | < 5.00 | < 5.00 | < 5.00 | 94.7% | 94.7% | 95.4% | 88.7% | 81.6% | 72.6% | 102% | 100% | 93.6% | 79.8% | 88.2% | 84.5% | 93.4% | 87.4% | 98% | viability, T/C [16]: 80.2%; viability, T/C [17]: 84.4%; viability, T/C [18]: 75.2%; viability, T/C [19]: 91.5%; viability, T/C [20]: 94.2%; viability, T/C [21]: 89.4%; viability, T/C [22]: 85.1%; viability, T/C [23]: 78.5%; viability, T/C [24]: 80.2%; viability, T/C [25]: 89.5%; viability, T/C [26]: 91.1%; viability, T/C [27]: 88.1%; viability, T/C [28]: 78%; viability, T/C [29]: 75.9%; viability, T/C [30]: 82% |
| Cc1cc(C)c(CNC(=O)c2cc(-c3ccc(CN4CCOCC4)cc3)cc3c2cnn3C2CCCC2)c(=O)[nH]1 + Cn1nnc2c(C(N)=O)ncn2c1=O | < 5.00 | < 5.00 | < 5.00 | < 5.00 | < 5.00 | 91.6% | 92.7% | 97.4% | 86.6% | 78.7% | 54.3% | 94.2% | 96.6% | 94.9% | 92.4% | 85.2% | 60.4% | 86.8% | 94.4% | 96% | viability, T/C [16]: 92.5%; viability, T/C [17]: 83.7%; viability, T/C [18]: 56.1%; viability, T/C [19]: 88.5%; viability, T/C [20]: 86.4%; viability, T/C [21]: 83.5%; viability, T/C [22]: 92.5%; viability, T/C [23]: 85.7%; viability, T/C [24]: 51.1%; viability, T/C [25]: 83.5%; viability, T/C [26]: 87.2%; viability, T/C [27]: 83.5%; viability, T/C [28]: 77.2%; viability, T/C [29]: 79.1%; viability, T/C [30]: 52.5% |
| [2H]c1nc(C)nc([2H])c1-c1cc(NC[C@@H](C)c2cccc3c(C(=O)NC)ccnc23)ncn1 + Cn1nnc2c(C(N)=O)ncn2c1=O | < 5.00 | < 5.00 | < 5.00 | < 5.00 | < 5.00 | 92.5% | 99.7% | 93.5% | 76.6% | 91.5% | 71.8% | 91% | 91.5% | 90.6% | 93.7% | 88.7% | 77.4% | 89.2% | 86.4% | 87.3% | viability, T/C [16]: 93.7%; viability, T/C [17]: 87.4%; viability, T/C [18]: 79.6%; viability, T/C [19]: 86.4%; viability, T/C [20]: 87.1%; viability, T/C [21]: 86.9%; viability, T/C [22]: 86.1%; viability, T/C [23]: 89.4%; viability, T/C [24]: 75.4%; viability, T/C [25]: 81.4%; viability, T/C [26]: 81.5%; viability, T/C [27]: 84.1%; viability, T/C [28]: 81.2%; viability, T/C [29]: 79.1%; viability, T/C [30]: 70.6% |
